Patent publication US11407736B2 (priority 2019, dated 2022)
Read-outs that look alike come from different tables or passages of the source.

Experiments:
[1] = molecular target: RIPK1 (Homo sapiens (Human), UniProt Q13546); test: RIPK1 ADP-Glo biochemical kinase assay; conditions: read-out: RIPK1 ADP-Glo Kinase (IC50)
Procedure: The final reaction volume was 5.0ul.
Adding 5 μl of ADP-Glo™ terminated the reaction.

[2] = system: U937 cells; test: U937 cell necroptosis assay (TNFa + zVAD, CellTiter-Glo); type: cell-based, human; conditions: Homo sapiens
Summary of the method: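 Necroptosis was induced with TNFa at 2 ng/mL final for 18 h at 37 °C, following 1 h compound pre-incubation in the presence of zVAD-fmk (60 uM for U937 plating medium, 40 uM for L929 medium). Luminescent CellTiter-Glo signal gave relative cell survival.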

[3] = system: L929 cells; test: L929 cell necroptosis assay (TNFa + zVAD, CellTiter-Glo); type: cell-based, murine; conditions: Mus musculus
Summary of the method: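 Necroptosis was read as CellTiter-Glo luminescence 18 hours after TNFa stimulation at 37° C, 5% CO2. Prior to that, L929 cells (10K/well, plated 18 h) received fresh medium with 40 uM zVAD-fmk plus 4-fold serially diluted compound.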

[4] = U-937, read-out: U937 Zvad TNF CTG Recovery, U937, TNFa + zVAD (IC50), U937 cells, TNFa + zVAD
[5] = L929, read-out: L929-CTG-recovery, L929, TNFa + zVAD (IC50), L929 cells, TNFa + zVAD
[6] = U-937, U937 cells, TNFa + zVAD, read-out: U937 Zvad TNF CTG Recovery, U937, TNFa + zVAD (IC50)
[7] = L929 cells, TNFa + zVAD, read-out: L929-CTG-recovery, L929, TNFa + zVAD (IC50)
[8] = L929, L929 cells, TNFa + zVAD, read-out: L929-CTG-recovery, L929, TNFa + zVAD (IC50)

Chain of RIPK1 (Q13546 whole entry, species assumed): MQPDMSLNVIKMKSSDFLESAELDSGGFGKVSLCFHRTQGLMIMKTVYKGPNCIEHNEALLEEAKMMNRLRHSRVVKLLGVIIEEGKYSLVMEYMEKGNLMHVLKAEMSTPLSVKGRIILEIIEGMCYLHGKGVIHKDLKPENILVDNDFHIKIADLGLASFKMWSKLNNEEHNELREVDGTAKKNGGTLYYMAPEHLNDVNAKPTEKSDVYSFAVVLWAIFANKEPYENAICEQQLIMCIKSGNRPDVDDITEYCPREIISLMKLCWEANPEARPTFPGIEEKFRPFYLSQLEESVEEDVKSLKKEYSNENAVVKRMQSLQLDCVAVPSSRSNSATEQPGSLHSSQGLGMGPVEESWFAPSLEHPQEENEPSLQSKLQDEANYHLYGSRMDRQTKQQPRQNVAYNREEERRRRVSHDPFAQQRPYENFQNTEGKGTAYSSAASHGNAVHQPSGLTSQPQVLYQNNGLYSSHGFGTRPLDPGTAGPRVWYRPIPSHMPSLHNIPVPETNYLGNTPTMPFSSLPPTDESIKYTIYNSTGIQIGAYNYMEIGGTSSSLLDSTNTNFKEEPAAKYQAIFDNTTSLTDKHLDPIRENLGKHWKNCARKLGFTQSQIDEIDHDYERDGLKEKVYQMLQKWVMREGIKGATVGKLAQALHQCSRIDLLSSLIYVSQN

For `COc1ccc(-c2ccnc(C(=O)N[C@H]3COc4ccc(C#CC(C)(C)O)cc4N(C)C3=O)c2)cc1` [II-22, (S)—N-(7-(3-hydroxy-3-methylbut-1-yn-1-yl)-5-methyl-4-oxo-2,3,4,5-tetrahydrobenzo[b][1,4]oxazepin-3-yl)-4-(4-methoxyphenyl)picolinamide], which IC50 [1] is on record?
The IC50 was 310 nM.

What about the IC50 [2, 4] of the same compound?
Its IC50 is 580 nM.

What about the IC50 [3, 5] of the same compound?
The IC50 was 56000 nM.

What does the source list for `CN1C(=O)[C@@H](NC(=O)c2cc(Oc3ccccc3)ccn2)COc2ccc(CCC(N)=O)cc21` [II-24, (S)—N-(7-(3-amino-3-oxopropyl)-5-methyl-4-oxo-2,3,4,5-tetrahydrobenzo[b][1,4]oxazepin-3-yl)-4-phenoxypicolinamide]?
IC50 [1]: 56.3 nM; IC50 [2, 4]: 16.6 nM; IC50 [3, 5]: 7910 nM

How did the IC50 [1] turn out when `CN1C(=O)[C@@H](NC(=O)c2cc(Oc3ccccc3)ccn2)COc2ccc(C#CC(C)(C)C)cc21` [II-25, (S)—N-(7-(3,3-dimethylbut-1-yn-1-yl)-5-methyl-4-oxo-2,3,4,5-tetrahydrobenzo[b][1,4]oxazepin-3-yl)-4-phenoxypicolinamide] was run?
Its IC50 is 226 nM.

What about the IC50 [2, 4] of the same compound?
The IC50 was 2.4 nM.

And the IC50 [3, 5]?
The IC50 was 202 nM.

With `CN1CCC2(CC1)CCN(c1ccc3c(c1)N(C)C(=O)[C@@H](NC(=O)c1cc(Oc4ccccc4)ccn1)CO3)CC2` [II-27, (S)—N-(5-Methyl-7-(9-methyl-3,9-diazaspiro[5.5]undecan-3-yl)-4-oxo-2,3,4,5-tetrahydrobenzo[b][1,4]oxazepin-3-yl)-4-phenoxypicolinamide] as the compound, how does the IC50 [1] read?
Its IC50 is 27.9 nM.

What about the IC50 [2, 6] of the same compound?
Its IC50 is 63.3 nM.

What about the IC50 [3, 7] of the same compound?
Its IC50 is 10400 nM.

What does the source list for `CN1C(=O)[C@@H](NC(=O)c2cc(Oc3ccccc3)ccn2)COc2ccc(N3CC4(CCOCC4)C3)cc21` [II-28, (S)—N-(5-methyl-4-oxo-7-(7-oxa-2-azaspiro[3.5]nonan-2-yl)-2,3,4,5-tetrahydrobenzo[b][1,4]oxazepin-3-yl)-4-phenoxypicolinamide]?
IC50 [1]: 16.1 nM; IC50 [2, 6]: 8.3 nM; IC50 [3, 7]: 2220 nM

Which IC50 [1] does the source give for `CN1C(=O)[C@@H](NC(=O)c2cc(Oc3ccccc3)ccn2)COc2ccc(N3CCC4(CCOCC4)C3)cc21` [II-31, (S)—N-(5-methyl-4-oxo-7-(8-oxa-2-azaspiro[4.5]decan-2-yl)-2,3,4,5-tetrahydrobenzo[b][1,4]oxazepin-3-yl)-4-phenoxypicolinamide] here?
The IC50 was 36.3 nM.

And the IC50 [2, 6]?
The IC50 was 8 nM.

What about the IC50 [3, 7] of the same compound?
The IC50 was 654 nM.

Which IC50 [1] does the source give for `COC(C)(C)C#Cc1ccc2c(c1)N(C)C(=O)[C@@H](NC(=O)c1cc(Oc3ccccc3)ccn1)CO2` [II-32, (S)—N-(7-(3-methoxy-3-methylbut-1-yn-1-yl)-5-methyl-4-oxo-2,3,4,5-tetrahydrobenzo[b][1,4]oxazepin-3-yl)-4-phenoxypicolinamide] here?
The IC50 was 50.5 nM.

What about the IC50 [2, 4] of the same compound?
The IC50 was 2.1 nM.

What about the IC50 [3, 5] of the same compound?
Its IC50 is 57.4 nM.

For `CN1C(=O)[C@@H](NC(=O)c2cc(Oc3ccccc3)ccn2)COc2ccc(C#Cc3cccc(C#N)n3)cc21` [II-33, (S)—N-(7-((6-cyanopyridin-2-yl)ethynyl)-5-methyl-4-oxo-2,3,4,5-tetrahydrobenzo[b][1,4]oxazepin-3-yl)-4-phenoxypicolinamide], which IC50 [1] is on record?
The IC50 was 101 nM.

What about the IC50 [2, 6] of the same compound?
Its IC50 is 1.8 nM.

And the IC50 [3, 8]?
Its IC50 is 33.1 nM.

Which IC50 [1] does the source give for `CN1C(=O)[C@@H](NC(=O)c2cc(Oc3ccccc3)ccn2)COc2ccc(C#CCO)cc21` [II-35, (S)—N-(7-(3-hydroxyprop-1-yn-1-yl)-5-methyl-4-oxo-2,3,4,5-tetrahydrobenzo[b][1,4]oxazepin-3-yl)-4-phenoxypicolinamide] here?
The IC50 was 27.5 nM.

What about the IC50 [2, 6] of the same compound?
The IC50 was 0.7 nM.

What about the IC50 [3, 8] of the same compound?
Its IC50 is 164 nM.

Which results are given for `CN(C)CC#Cc1ccc2c(c1)N(C)C(=O)[C@@H](NC(=O)c1cc(Oc3ccccc3)ccn1)CO2` [II-36, (S)—N-(7-(3-(dimethylamino)prop-1-yn-1-yl)-5-methyl-4-oxo-2,3,4,5-tetrahydrobenzo[b][1,4]oxazepin-3-yl)-4-phenoxypicolinamide]?
IC50 [1]: 38.9 nM; IC50 [2, 6]: 1.6 nM; IC50 [3, 8]: 132 nM

What does the source list for `CN1C(=O)[C@@H](NC(=O)c2cc(Oc3ccccc3)ccn2)COc2ccc(C#CC3CCCN3)cc21` (stereo partly drawn) [II-39, N-((3S)-5-methyl-4-oxo-7-(pyrrolidin-2-ylethynyl)-2,3,4,5-tetrahydrobenzo[b][1,4]oxazepin-3-yl)-4-phenoxypicolinamide]?
IC50 [1]: 23 nM; IC50 [2, 6]: 1.8 nM; IC50 [3, 8]: 1350 nM
